# Experimental data published in patent US6368621B1, “Preparation in particular for use as a medication and/or food supplement” (Peter Greither, priority 1999, dated 2002).
# Assay: Determining the Kpart value: distribution between n-octanol and aqueous tris hydrochloride
# Assay type: physicochemical
# Settings: n-octanol / aqueous tris hydrochloride 20 mM, pH 7.4, 20° C.; for distribution coefficient Kpart, metal-free compound: spectrophotometry 220 to 340 nm; for distribution coefficient Kpart, iron complex [FeIII-(compound)3]: spectrophotometry 340 to 640 nm, 3:1 iron(III) complex of the compound
# From the text: A further factor which plays a role with the bio-availability of iron is the ability of the iron complexes to penetrate biological membranes. One of the possible indicators for this membrane permeation is Kpart. Kpart describes the ratio between the concentration of the compound in n-octanol to the concentration of the compound in the aqueous phase. Although the iron complex as well as its corresponding metal-free compound should be able to enter through the biomembrane, both should also have a certain degree of water solubility. In the course of the present invention the iron complexes preferably have Kpart values in a region between 0.02 and 6.0, preferred between 0.1 and 4.0 and even more preferred between 0.2 and 1.0. The metal-free complex preferably has Kpart values between 0.05 and 3.0, preferred between 0.1 and 2.0 and even more preferred between 0.2 and 1.0.
# Determining the Kpart value:
# Determined is the distribution in each case for the iron complex as well as for the corresponding metal-free compound between n-octanol and aqueous tris hydrochloride (20 mM, pH 7.4; tris: 2 amino-2-hydroxymethylpropane-1,3-diol). The concentration of the substances in the respective phase is measured at 20° C. by way of spectrophotometry. 5 ml of a 10^−4M aqueous solution of iron complex and metal-free compound are mixed with 5 ml of n-octanol for one minute. The aqueous n-octanol mixture arising with this is centrifuged at 1,000 G for 30 seconds. The two resulting phases are separated from one another for evaluating the concentration. The metal-free compound is measured in a region of 220 to 340 nanometers whilst for evaluating the concentration of the corresponding iron complex a region between 340 and 640 nanometers is selected. These regions also apply to the 3:1 maltol-iron(III)-complex.
SMILES,"distribution coefficient Kpart, metal-free compound","distribution coefficient Kpart, iron complex [FeIII-(compound)3]"
CCn1cccc(O)c1=O [1-ethyl-3-hydroxypyri-2-one],0.52,1.06
Cn1cccc(O)c1=O [3-hydroxy-1-methylpyride-2-one],0.44,0.10
Cc1occc(=O)c1O [3-hydroxy-2-methyl-4 pyrone],0.66,0.5
